Measured values as given in patent US20240167005A1, “MODIFIED SHIGELLA APYRASE AND USES THEREOF” (APIRAYS BIOSCIENCES AB, priority 2021, published 2024).

Columns and labels:
[1] = target: Shigella flexneri apyrase (ApiOne, SEQ ID NO: 1) ApiTwo mutant L66V (Shigella flexneri, UniProt Q59909, L66V); assay: Affinity towards ATP, L66V; assay type: biochemical; conditions: 50 mM Tris-HCl pH 7.5, 37° C., 20 min, 500 ng enzyme
Text: However, not all reactions successfully generated PCR products by agarose gel electrophoresis. The successful mutations were transformed into the expression host and proteins were expressed and purified to homogeneity by affinity chromatography.
Other substrates like 2-Glycerophosphate, Pyridoxal phosphate and phenyl phosphate were not hydrolysed by the mutants (Table 2 and FIG. 8A-B).
(§1) Respective colorimetric/fluorescence assays (mentioned above).

[2] = target: T1, wild-type Shigella flexneri apyrase, SEQ ID NO: 1 (Shigella flexneri, UniProt Q59909); assay: ATP hydrolysis, Km for ATP (Example 2), wild type; assay type: biochemical; conditions: 50 mM Tris, pH 7.5, 37° C., 30 min, 700 ng enzyme
T1 sequence (Q59909 26-246): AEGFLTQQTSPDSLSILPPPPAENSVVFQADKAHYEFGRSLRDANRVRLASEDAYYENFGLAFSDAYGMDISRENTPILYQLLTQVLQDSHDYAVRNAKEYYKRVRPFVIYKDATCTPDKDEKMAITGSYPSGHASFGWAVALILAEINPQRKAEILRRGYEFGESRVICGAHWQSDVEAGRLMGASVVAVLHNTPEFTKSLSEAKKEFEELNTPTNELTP
Protocol: (§2) A titrated series of ATP solutions from 100 mM to 0.01 mM in 50 mM Tris, pH 7.5 were prepared and incubated with 700 ng of Apyrase (mutant prepared in Example 1 and wild-type Shigella flexneri apyrase as control) for 30 minutes at 37° C. (100 μL reaction). After the incubation, 100 μL AMFAS reagent was added and OD was taken at 630 nm using multimode reader (Biotek instruments). The color formation is proportional to the amount of ATP degraded (dephosphorylated to ADP or AMP). […] Specific activity at 10 mM ATP was determined as 6.3 μmoles/min/mg for the mutant apyrase.

[3] = test system: EIEC apyrase variant H116L; assay: Affinity of ATP to EIEC H116L (Table 6); assay type: biochemical
Text: as §1

[4] = target: Shigella flexneri apyrase (ApiOne, SEQ ID NO: 1) Double mutant L66V/G63R (Shigella flexneri, UniProt Q59909, G63R/L66V); conditions: read-out: Affinity (Km), ATP, 50 mM Tris-HCl pH 7.5, 37° C., 20 min, 500 ng enzyme
Protocol: To this 200 μL of Ammonium Molybdate Ferrous Ammonium Sulphate (AMFAS) reagent was added. AMFAS reagent was prepared by mixing equal volumes of reagent A and reagent B, where reagent A comprises of 5% (w/v) ammonium molybdate in 5 N H2SO4 and reagent B contains 1% (w/v) ferrous ammonium sulphate in double-distilled water. The amount of inorganic phosphate formed (product of ATP/ADP hydrolysis) is colorimetrically measured at 630 nm using multi-mode spectrophotometer (Biotek instruments).
The kinetic curves were plotted and the Michaelis Menten constant (Km) was calculated using GraphPad Prism 5.0 software.

[5] = target: Shigella flexneri apyrase, mutant apyrase of Example 1, SEQ ID NO: 3 (S50N, F54V, G63R, L66V, N70Q, E77V, A791, D90T, S97T, L108M, Q113N, V120R, K124R, Y127Q, P (Shigella flexneri, UniProt Q59909, A167G/A79I/D90T/E243D/E77V/F162N/F223W/F234Y/F53V/G185A/G206R/G63R/I151L/K124R/K178R/L108M/L182F/L227S/L66V/N174Q/N219K/N70Q/P143R/Q113N/S50N/S97T/T239Q/V120R/V213A/W199Y/Y127Q)); assay: ATP hydrolysis, Km for ATP (Example 2), mutant; assay type: biochemical; conditions: mutant of Example 1; 50 mM Tris, pH 7.5, 37° C., 30 min, 700 ng enzyme
Protocol: In order to improve the activity of apyrase and its tolerance to high salt conditions, the inventors mutated the apyrase gene randomly using an error prone PCR method starting from the wild-type Shigella flexneri apyrase DNA sequence (SEQ ID NO: 4) as template. The method incorporates repeated copying of the template at high MgCl2 concentration (5 mM) with Taq polymerase. After every fourth cycle, one fifth of the reaction mixture was transferred to fresh PCR tube and the same process was repeated 22 times to obtain a product that will have randomly mutated nucleotides which can be identified by sequencing. The mutated gene was cloned in pET21a vector. The mutated DNA sequence obtained is presented as SEQ ID NO: 2, containing a total of 31 mutations leading to amino-acid changes (see SEQ ID NO:3 compared to the wild-type amino-acid sequence of SEQ ID NO: 1).
as §2, with “instruments).” for “instruments). The color formation is proportional to the amount of ATP degraded (dephosphorylated to ADP or AMP).”

Molecule `Nc1ncnc2c1ncn2[C@@H]1O[C@H](COP(=O)(O)OP(=O)(O)OP(=O)(O)O)[C@@H](O)[C@H]1O` [ATP, Adenosine triphosphate] has a Km [1] of 18.5 µM, a Km [2] of 3300 µM and a Km [3] of 24 µM. The Km [4] was 20.7 µM and the Km [5] was 3600 µM.
